Assays:
[1] = system: 60 tumor cell lines; assay: NCI60 full panel MG_MID
Method: (§1) At the first stage of biological activity study, the antitumor activity screening of the selected compounds 2b, 2c, 2f, 2h, and 2j was performed according to the NCI DTP (USA) standard protocol at the concentrations ranging from 10^−4 to 10^−8 M toward 60 tumor cell lines. The percentage of growth was evaluated spectrophotometrically versus controls not treated with test agents after 48 h exposure and using SRB protein assay to estimate cell viability or growth. Dose–response parameters were calculated for each cell line: GI50—molar concentration of the compound that inhibits 50% net cell growth; TGI—molar concentration of the compound leading to the total inhibition; and LC50—molar concentration of the compound leading to 50% net cell death. Furthermore, mean graph midpoints (MG_MID) were calculated for each of the parameters, giving an average activity parameter over all cell lines for the tested compound. For the MG_MID calculation, insensitive cell lines were included with the highest concentration tested.
(§2) Primary anticancer assay was performed on a panel of approximately sixty human tumor cell lines derived from nine neoplastic diseases, in accordance with the protocol of the Drug Evaluation Branch, National Cancer Institute, Bethesda. Tested compounds were added to the culture at a single concentration (10^−5 M) and the cultures were incubated for 48 h. End point determinations were made with a protein binding dye, sulforhodamine B (SRB). […] The percentage growth was evaluated spectrophotometrically versus controls not treated with test agents.
(§3) Dose–response parameters (GI50, TGI, LC50) were calculated for each compound. […] The drug concentration resulting in total growth inhibition (TGI) was calculated from Ti = Tz. The LC50 (concentration of drug resulting in a 50% reduction in the measured protein at the end of the drug treatment as compared to that at the beginning) indicating a net loss of cells following treatment was calculated from [(Ti − Tz)/Tz] × 100 = −50 (2). Values were calculated for each of these parameters if the level of activity was reached; however, if the effect was not reached or was excessive, the value for that parameter was expressed as more or less than the maximum or minimum concentration tested.

[2] = system: NCI-H23; details: NCI-H23 (Non-Small Cell Lung Cancer), 48 h, SRB
[3] = system: K-562; details: K-562 (Leukemia), 48 h, SRB
[4] = system: 786-0; details: 786-0 (Renal Cancer), 48 h, SRB
[5] = system: HCT-116; details: HCT-116 (Colon Cancer), 48 h, SRB
[6] = system: NCI-322M; assay: NCI DTP 60 cell line screen, SRB; details: 48 h
[7] = system: Ovarian Cancer subpanel; assay: cells
Method: as §1
(§4) The selectivity index (SI) obtained by dividing the full panel MG-MID (mM) of the tested compound by their individual subpanel MG-MID (mM) was considered as a measure of selectivity of anticancer activity (Table 3).
as §2, §3

[8] = system: Prostate Cancer subpanel; assay: cells
Method: as §1, §4, §2, §3

[9] = system: Breast Cancer subpanel; assay: cells
Method: as §1, §4, §2, §3

[10] = system: Melanoma subpanel; assay: cells
Method: as §1, §4, §2, §3

[11] = system: Non-Small Cell Lung Cancer subpanel; assay: cells
Method: as §1, §4, §2, §3

[12] = system: CNS Cancer subpanel; assay: cells
Method: as §1, §4, §2, §3

[13] = system: Leukemia subpanel; assay: cells
Method: as §1, §4, §2, §3

[14] = system: Renal Cancer subpanel; assay: cells
Method: as §1, §4, §2, §3

[15] = system: Colon Cancer subpanel; assay: cells
Method: as §1, §4, §2, §3

[16] = system: HCT-15; assay: NCI DTP 60 cell line screen, SRB
[17] = system: SK-OV-3; assay: NCI DTP 60 cell line screen, SRB
[18] = system: M14; assay: NCI DTP 60 cell line screen, SRB
[19] = system: LOX IMVI; assay: cells; details: Homo sapiens, 48 h
[20] = system: A549/ATCC; details: A549/ATCC (Non-Small Cell Lung Cancer), 48 h, SRB
[21] = Homo sapiens, read-out: MG_MID, GI50
[22] = Homo sapiens, read-out: MG_MID, LC50
[23] = full panel MG_MID / Ovarian Cancer subpanel MG_MID
[24] = full panel MG_MID / Prostate Cancer subpanel MG_MID
[25] = full panel MG_MID / Breast Cancer subpanel MG_MID
[26] = full panel MG_MID / Melanoma subpanel MG_MID
[27] = full panel MG_MID / Non-Small Cell Lung Cancer subpanel MG_MID
[28] = full panel MG_MID / CNS Cancer subpanel MG_MID
[29] = full panel MG_MID / Leukemia subpanel MG_MID
[30] = full panel MG_MID / Renal Cancer subpanel MG_MID
[31] = full panel MG_MID / Colon Cancer subpanel MG_MID

## O=C1NC(=S)S/C1=C\C(Cl)=C\c1ccc([N+](=O)[O-])cc1 [Compound 2b, 5-[(Z,2Z)-2-Chloro-3-(4-nitrophenyl)-2-propenylidene]-2-thioxo-4-thiazolidinone]
[1]; Homo sapiens, read-out: 60 lines MG_MID, GI50
  GI50: 4.79 µM
[1]; Homo sapiens, read-out: 60 lines MG_MID, LC50
  CC50: 43.5 µM
[1]; mean over all cell lines
  60 lines MG_MID, TGI: 20.3 µM
[2]
  TGI: 13.4 µM
[3]
  TGI: 42.5 µM
[4]
  TGI: 18.8 µM
[5]
  TGI: 11.0 µM
[6]; Homo sapiens, NCI-322M
  GI50: 6.51 µM
[6]; Homo sapiens, NCI-322M, read-out: LC50
  CC50: > 50 µM
[6]; NCI-322M (Non-Small Cell Lung Cancer), SRB
  TGI: 18.8 µM
[7]; [21]
  GI50: 6.68 µM
[7]; [22]
  CC50: 42.8 µM
[7]; Ovarian Cancer panel mean
  MG_MID, TGI: 21.0 µM
[7]; [23]
  SI (selectivity index), GI50: 0.72
  SI (selectivity index), LC50: 1.02
  SI (selectivity index), TGI: 0.97
[8]; [21]
  GI50: 5.89 µM
[8]; [22]
  CC50: 39.2 µM
[8]; Prostate Cancer panel mean
  MG_MID, TGI: 32.1 µM
[8]; [24]
  SI (selectivity index), GI50: 0.81
  SI (selectivity index), LC50: 1.11
  SI (selectivity index), TGI: 0.63
[9]; Breast Cancer panel mean
  MG_MID, TGI: 28.4 µM
[9]; [21]
  GI50: 4.38 µM
[9]; [22]
  CC50: 46.7 µM
[9]; [25]
  SI (selectivity index), GI50: 1.09
  SI (selectivity index), LC50: 0.93
  SI (selectivity index), TGI: 0.71
[10]; [21]
  GI50: 5.57 µM
[10]; [22]
  CC50: 36.8 µM
[10]; Melanoma panel mean
  MG_MID, TGI: 16.1 µM
[10]; [26]
  SI (selectivity index), GI50: 0.86
  SI (selectivity index), LC50: 1.18
  SI (selectivity index), TGI: 1.26
[11]; [21]
  GI50: 3.79 µM
[11]; [22]
  CC50: 48.6 µM
[11]; Non-Small Cell Lung Cancer panel mean
  MG_MID, TGI: 29.7 µM
[11]; [27]
  SI (selectivity index), GI50: 1.26
  SI (selectivity index), LC50: 0.90
  SI (selectivity index), TGI: 0.68
[12]; CNS Cancer panel mean
  MG_MID, TGI: 22.4 µM
[12]; [21]
  GI50: 6.98 µM
[12]; [22]
  CC50: 45.4 µM
[12]; [28]
  SI (selectivity index), GI50: 0.69
  SI (selectivity index), LC50: 0.96
  SI (selectivity index), TGI: 0.91
[13]; [21]
  GI50: 1.51 µM
[13]; [22]
  CC50: > 50 µM
[13]; Leukemia panel mean
  MG_MID, TGI: 20.2 µM
[13]; [29]
  SI (selectivity index), GI50: 3.17
  SI (selectivity index), LC50: <0.87
  SI (selectivity index), TGI: 1.00
[14]; [21]
  GI50: 6.23 µM
[14]; [22]
  CC50: 42.9 µM
[14]; Renal Cancer panel mean
  MG_MID, TGI: 18.7 µM
[14]; [30]
  SI (selectivity index), GI50: 0.77
  SI (selectivity index), LC50: 1.01
  SI (selectivity index), TGI: 1.09
[15]; Colon Cancer panel mean
  MG_MID, TGI: 11.5 µM
[15]; [21]
  GI50: 3.27 µM
[15]; [22]
  CC50: 35.4 µM
[15]; [31]
  SI (selectivity index), GI50: 1.46
  SI (selectivity index), LC50: 1.23
  SI (selectivity index), TGI: 1.77
[16]; HCT-15 (Colon Cancer), 48 h, SRB
  TGI: 8.81 µM
[16]; Homo sapiens, HCT-15, 48 h
  GI50: 1.79 µM
[16]; Homo sapiens, HCT-15, 48 h, read-out: LC50
  CC50: 25.4 µM
[17]; Homo sapiens, SK-OV-3, 48 h
  GI50: 13 µM
[17]; Homo sapiens, SK-OV-3, 48 h, read-out: LC50
  CC50: > 50 µM
[17]; SK-OV-3 (Ovarian Cancer), 48 h, SRB
  TGI: > 50 µM
[18]; Homo sapiens, M14, 48 h
  GI50: 8.87 µM
[18]; Homo sapiens, M14, 48 h, read-out: LC50
  CC50: > 50 µM
[18]; M14 (Melanoma), 48 h, SRB
  TGI: 32.2 µM
[19]
  GI50: 6.6 µM
[19]; read-out: LC50
  CC50: 36 µM
[20]
  TGI: > 50 µM

Source: article PMC8161026, “Synthesis and Anticancer Activity Evaluation of 5-[2-Chloro-3-(4-nitrophenyl)-2-propenylidene]-4-thiazolidinones” (Molecules, 2021)
